Experimental data from patent US20240368135A1 (VERTEX PHARMACEUTICALS INCORPORATED, priority 2021, published 2024).
Where two headings read alike, the source gives them in different places.

Molecular target: human NaV 1.8 (Homo sapiens, UniProt Q9Y5Y9)
Experiment: E-VIPR assay detecting and measuring NaV inhibition properties
Format: cell-based
Conditions: HEK cells expressing truncated human NaV 1.8
Description: Sodium ion channels are voltage-dependent proteins that can be activated by inducing membrane voltage changes by applying electric fields. The electrical stimulation instrument and methods of use, referred to as E-VIPR, are described in International Publication No. WO 2002/008748 A3 and C.-J. Huang et al. Characterization of voltage-gated sodium channel blockers by electrical stimulation and fluorescence detection of membrane potential, 24 Nature Biotech. 439-46 (2006), both of which are incorporated by reference in their entirety. The instrument comprises a microtiter plate handler, an optical system for exciting the coumarin dye while simultaneously recording the coumarin and oxonol emissions, a waveform generator, a current- or voltage-controlled amplifier, and parallel electrode pairs that are inserted into assay plate wells. Under integrated computer control, this instrument passes user-programmed electrical stimulus protocols to cells within the wells of the microtiter plate.
16-20 hours prior to running the assay on E-VIPR, HEK cells expressing a truncated form of human NaV 1.8 with full channel activity were seeded into microtiter 384-well plates, pre-coated with matrigel, at a density of 25,000 cells per well. 2.5-5% KIR2.1 Bacmam virus was added to the final cell suspension before seeding into cell plates. HEK cells were grown in Dulbecco's Modified Eagle's Medium (DMEM) supplemented with 10% FBS (Fetal Bovine Serum, qualified; Sigma #F4135), 1% NEAA (Non-Essential Amino Acids, Gibco #11140), 1% HEPES (Gibco #15630), 1% Pen-Strep (Penicillin-Streptomycin; Gibco #15140) and 5 μg/ml Blasticidin (Gibco #R210-01). Cells were expanded in vented cap cell culture flasks, with 90-95% humidity and 5% CO2.
Human Serum (HS, Millipore #S1P1-01KL, or Sigma SLBR5469V and SLBR5470V as a 50%/50% mixture, for 25% assay final concentration) • Bath 1 Buffer: • Sodium Chloride 160 mM (9.35 g/L), Potassium Chloride, 4.5 mM (0.335 g/L), Glucose 10 mM (1.8 g/L), Magnesium Chloride (Anhydrous) 1 mM (0.095 g/L), Calcium Chloride 2 mM (0.222 g/L), HEPES 10 mM (2.38 g/L) in water. • Na/TMA C1 Bath 1 Buffer: • Sodium Chloride 96 mM (5.61 g/L), Potassium Chloride 4.5 mM (0.335 g/L), Tetramethylammonium (TMA)-Cl 64 mM (7.01 g/L), Glucose 10 mM (1.8 g/L), Magnesium Chloride (Anhydrous) 1 mM (0.095 g/L), Calcium Chloride 2 mM (0.222 g/L) HEPES 10 mM (2.38 g/L) in water. • Hexyl Dye Solution (2× concentration): • Bath 1 Buffer containing 0.5% P-cyclodextrin (made fresh prior to each use, Sigma #C4767), 8 μM CC2-DMPE and 2 μM DiSBAC6(3). The solution was made by adding 10% Pluronic F127 stock equal to combined volumes of CC2-DMPE and DiSBAC6(3). The order of preparation was first mix Pluronic and CC2-DMPE, then add DiSBAC6(3), then while vortexing add Bath 1/p-Cyclodextrin.
Compound Loading Buffer (2× concentration): Na/TMA C1 Bath1 Buffer containing HS (omitted in experiments run in the absence of human serum (HS)) 50%, VABSC-1 1 mM, BSA 0.2 mg/ml (in Bath-1), KCl 9 mM, DMSO 0.625%.
1) To reach the final concentration in each well, 375 nL of each compound was pre-spotted (in neat DMSO) into polypropylene compound plates at 240× desired final concentration from an intermediate stock concentration of 0.075 mM, in an 11 point dose response, 3-fold dilution, resulting in a top dose of 300 nM final concentration in the cell plate. Vehicle control (neat DMSO), and positive control (an established NaV1.8 inhibitor, 25 μM final in assay in DMSO) were added manually to the outermost columns of each plate respectively. The compound plate was backfilled with 45 μL per well of Compound Loading Buffer resulting in a 240 fold dilution of compound following a 1:1 transfer of compound into the cell plate (see Step 6). Final DMSO concentration for all wells in the assay was 0.625% (0.75% DMSO was supplemented to the Compound Loading Buffer for a final DMSO concentration of 0.625%). […]

[1] = no human serum, read-out: IC50 in the E-VIPR Assay
[2] = in the presence of human serum (compound numbers followed by *), read-out: IC50 in the E-VIPR Assay, performed in the presence of human serum

Chain of human NaV 1.8 (Q9Y5Y9 126-399 limits assumed): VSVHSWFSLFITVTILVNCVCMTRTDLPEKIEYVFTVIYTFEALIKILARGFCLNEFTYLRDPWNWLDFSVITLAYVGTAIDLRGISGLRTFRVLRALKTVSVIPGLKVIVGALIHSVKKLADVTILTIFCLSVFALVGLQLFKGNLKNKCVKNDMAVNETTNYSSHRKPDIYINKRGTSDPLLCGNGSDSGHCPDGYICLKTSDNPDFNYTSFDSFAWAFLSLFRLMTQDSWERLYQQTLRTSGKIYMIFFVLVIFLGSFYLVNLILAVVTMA
Chain of human NaV 1.8 (Q9Y5Y9 660-890 limits assumed): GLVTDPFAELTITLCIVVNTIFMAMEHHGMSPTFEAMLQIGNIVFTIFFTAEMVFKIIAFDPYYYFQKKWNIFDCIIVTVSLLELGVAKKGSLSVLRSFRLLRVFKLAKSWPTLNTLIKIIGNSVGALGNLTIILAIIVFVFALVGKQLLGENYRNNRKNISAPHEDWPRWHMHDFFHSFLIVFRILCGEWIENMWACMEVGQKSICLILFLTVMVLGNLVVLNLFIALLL
Chain of human NaV 1.8 (Q9Y5Y9 1148-1722 limits assumed): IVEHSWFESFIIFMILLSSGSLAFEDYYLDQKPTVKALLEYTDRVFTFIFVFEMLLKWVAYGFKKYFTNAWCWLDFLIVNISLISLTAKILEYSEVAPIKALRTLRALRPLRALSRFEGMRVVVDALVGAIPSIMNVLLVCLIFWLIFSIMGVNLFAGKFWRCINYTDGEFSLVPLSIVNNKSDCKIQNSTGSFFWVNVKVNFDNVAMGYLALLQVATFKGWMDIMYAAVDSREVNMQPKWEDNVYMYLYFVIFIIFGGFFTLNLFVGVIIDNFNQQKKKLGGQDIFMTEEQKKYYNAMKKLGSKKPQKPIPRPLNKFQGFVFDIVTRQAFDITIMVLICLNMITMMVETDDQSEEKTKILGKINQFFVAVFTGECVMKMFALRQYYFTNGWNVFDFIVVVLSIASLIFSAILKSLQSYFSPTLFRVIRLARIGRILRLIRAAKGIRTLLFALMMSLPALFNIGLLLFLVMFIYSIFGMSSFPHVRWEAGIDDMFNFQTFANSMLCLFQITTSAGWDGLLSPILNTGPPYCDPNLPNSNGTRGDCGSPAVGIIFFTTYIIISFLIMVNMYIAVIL

Row | SMILES | IC50 [1] [nM] | IC50 [2] [nM]
1 | COc1c(C2C(C(=O)Nc3cccc(P(C)(C)=O)c3)OC(C)(C(F)(F)F)C2C)ccc(F)c1F (single isomer, unassigned) [Compound 41, 3-(3,4-difluoro-2-methoxy-phenyl)-N-(3-dimethylphosphorylphenyl)-4,5-dimethyl-5-(trifluoromethyl)tetrahydrofuran-2-carboxamide] | ≥ 1000 | –
2 | COc1c(C2C(C(=O)Nc3ccnc(C(C)(C)O)c3)OC(C)(C(F)(F)F)C2C)ccc(F)c1F (single isomer, unassigned) [Compound 48, 3-(3,4-difluoro-2-methoxy-phenyl)-N-[2-(1-hydroxy-1-methyl-ethyl)-4-pyridyl]-4,5-dimethyl-5-(trifluoromethyl)tetrahydrofuran-2-carboxamide] | < 10 | –
3 | COc1c(C2C(C(=O)Nc3ccnc(S(C)(=O)=O)c3)OC(C)(C(F)(F)F)C2C)ccc(F)c1F (single isomer, unassigned) [Compound 50, 3-(3,4-difluoro-2-methoxy-phenyl)-4,5-dimethyl-N-(2-methylsulfonyl-4-pyridyl)-5-(trifluoromethyl)tetrahydrofuran-2-carboxamide] | < 10 | –
4 | CCS(=O)(=O)c1cc(NC(=O)C2OC(C)(C(F)(F)F)C(C)C2c2ccc(F)c(F)c2OC)ccn1 (single isomer, unassigned) [Compound 51, 3-(3,4-difluoro-2-methoxy-phenyl)-N-(2-ethylsulfonyl-4-pyridyl)-4,5-dimethyl-5-(trifluoromethyl)tetrahydrofuran-2-carboxamide] | < 10 | –
5 | CCS(=O)(=O)c1cc(NC(=O)C2OC(C)(C(F)(F)F)C(C)C2c2ccc(F)c(F)c2OC)ccn1 (single isomer, unassigned) [Compound 52, 3-(3,4-difluoro-2-methoxy-phenyl)-N-(2-ethylsulfonyl-4-pyridyl)-4,5-dimethyl-5-(trifluoromethyl)tetrahydrofuran-2-carboxamide] | ≥ 1000 | –
6 | COc1c(C2C(C(=O)Nc3ccnc(S(C)(=N)=O)c3)OC(C)(C(F)(F)F)C2C)ccc(F)c1F (single isomer, unassigned) [Compound 55, 3-(3,4-difluoro-2-methoxy-phenyl)-4,5-dimethyl-N-[2-(methylsulfonimidoyl)-4-pyridyl]-5-(trifluoromethyl)tetrahydrofuran-2-carboxamide] | < 10 | –
7 | C[C@H]1[C@@H](c2ccc(F)c(F)c2OC(F)F)[C@H](C(=O)Nc2cccnc2)O[C@@]1(C)C(F)(F)F (single isomer, unassigned) [Compound 65] | – | 10 to 100
8 | C[C@@H]1[C@H](c2ccc(F)c(F)c2OC(F)F)[C@@H](C(=O)Nc2cccnc2)O[C@]1(C)C(F)(F)F (single isomer, unassigned) [Compound 66] | – | ≥ 1000
9 | C[C@H]1[C@@H](c2ccc(F)c(F)c2OC(F)F)[C@H](C(=O)Nc2ccc(=O)n(C)c2)O[C@@]1(C)C(F)(F)F (single isomer, unassigned) [Compound 68] | 10 to 100 | –
10 | C[C@@H]1[C@H](c2ccc(F)c(F)c2OC(F)F)[C@@H](C(=O)Nc2cncc(C#N)c2)O[C@]1(C)C(F)(F)F (single isomer, unassigned) [Compound 69] | – | ≥ 1000

Further lines, results first:

Row | IC50 [1] [nM] | IC50 [2] [nM] | SMILES
11 | < 10 | – | COc1c(C2C(C(=O)Nc3cccc(P(C)(C)=O)c3)OC(C)(C(F)(F)F)C2C)ccc(F)c1F (single isomer, unassigned) [Compound 42, 3-(3,4-difluoro-2-methoxy-phenyl)-N-(3-dimethylphosphorylphenyl)-4,5-dimethyl-5-(trifluoromethyl)tetrahydrofuran-2-carboxamide]
12 | ≥ 1000 | – | COc1c(C2C(C(=O)Nc3ccnc(C(O)CO)c3)OC(C)(C(F)(F)F)C2C)ccc(F)c1F (single isomer, unassigned) [Compound 43, 3-(3,4-difluoro-2-methoxy-phenyl)-N-[2-(1,2-dihydroxyethyl)-4-pyridyl]-4,5-dimethyl-5-(trifluoromethyl)tetrahydrofuran-2-carboxamide]
13 | < 10 | – | COc1c(C2C(C(=O)Nc3ccnc(C(O)CO)c3)OC(C)(C(F)(F)F)C2C)ccc(F)c1F (single isomer, unassigned) [Compound 44, 3-(3,4-difluoro-2-methoxy-phenyl)-N-[2-(1,2-dihydroxyethyl)-4-pyridyl]-4,5-dimethyl-5-(trifluoromethyl)tetrahydrofuran-2-carboxamide]
14 | < 10 | – | COc1c(C2C(C(=O)Nc3ccnc(C(O)CO)c3)OC(C)(C(F)(F)F)C2C)ccc(F)c1F (single isomer, unassigned) [Compound 46, 3-(3,4-difluoro-2-methoxy-phenyl)-N-[2-(1,2-dihydroxyethyl)-4-pyridyl]-4,5-dimethyl-5-(trifluoromethyl)tetrahydrofuran-2-carboxamide]
15 | ≥ 1000 | – | COc1c(C2C(C(=O)Nc3ccnc(C(C)(C)O)c3)OC(C)(C(F)(F)F)C2C)ccc(F)c1F (single isomer, unassigned) [Compound 47, 3-(3,4-difluoro-2-methoxy-phenyl)-N-[2-(1-hydroxy-1-methyl-ethyl)-4-pyridyl]-4,5-dimethyl-5-(trifluoromethyl)tetrahydrofuran-2-carboxamide]
16 | – | ≥ 1000 | COc1c(C2C(C(=O)Nc3ccnc(S(C)(=O)=O)c3)OC(C)(C(F)(F)F)C2C)ccc(F)c1F (single isomer, unassigned) [Compound 49, 3-(3,4-difluoro-2-methoxy-phenyl)-4,5-dimethyl-N-(2-methylsulfonyl-4-pyridyl)-5-(trifluoromethyl)tetrahydrofuran-2-carboxamide]
17 | 100 to 1000 | – | COc1c(C2C(C(=O)Nc3ccnc(S(C)(=N)=O)c3)OC(C)(C(F)(F)F)C2C)ccc(F)c1F (single isomer, unassigned) [Compound 53, 3-(3,4-difluoro-2-methoxy-phenyl)-4,5-dimethyl-N-[2-(methylsulfonimidoyl)-4-pyridyl]-5-(trifluoromethyl)tetrahydrofuran-2-carboxamide]
18 | < 10 | – | COc1c(C2C(C(=O)Nc3ccnc(S(C)(=N)=O)c3)OC(C)(C(F)(F)F)C2C)ccc(F)c1F (single isomer, unassigned) [Compound 54, 3-(3,4-difluoro-2-methoxy-phenyl)-4,5-dimethyl-N-[2-(methylsulfonimidoyl)-4-pyridyl]-5-(trifluoromethyl)tetrahydrofuran-2-carboxamide]
19 | 100 to 1000 | – | COc1c(C2C(C(=O)Nc3ccnc(S(C)(=N)=O)c3)OC(C)(C(F)(F)F)C2C)ccc(F)c1F (single isomer, unassigned) [Compound 56, 3-(3,4-difluoro-2-methoxy-phenyl)-4,5-dimethyl-N-[2-(methylsulfonimidoyl)-4-pyridyl]-5-(trifluoromethyl)tetrahydrofuran-2-carboxamide]
20 | – | ≥ 1000 | C[C@@H]1[C@H](c2ccc(F)c(F)c2OC(F)F)[C@@H](C(=O)Nc2ccc(=O)n(C)c2)O[C@]1(C)C(F)(F)F (single isomer, unassigned) [Compound 67]
21 | – | 100 to 1000 | C[C@H]1[C@@H](c2ccc(F)c(F)c2OC(F)F)[C@H](C(=O)Nc2cncc(C#N)c2)O[C@@]1(C)C(F)(F)F (single isomer, unassigned) [Compound 70]
22 | ≥ 1000 | – | C[C@@H]1[C@H](c2ccc(F)c(F)c2OC(F)F)[C@@H](C(=O)Nc2cc(S(C)(=O)=O)ccn2)O[C@]1(C)C(F)(F)F (single isomer, unassigned) [Compound 71]
